# Experimental data taken from patent publication US12692302B2, “Uses of IL-13 antagonists for treating atopic dermatitis” (Genentech, Inc., priority 2016, dated 2026).
# Read-outs that look alike come from different tables or passages of the source.
# Columns and labels:
# [1] = system: adult patients with persistent moderate to severe AD inadequately controlled by TCS; test: Clinical Study II (phase II, open label, lebrikizumab monotherapy vs TCS alone): efficacy; type: in vivo, human; details: for % change in BSA / % change in EASI / % change in SCORAD / EASI-75 (percent of patients) / EASI-90 (percent of patients) / IGA 0/1 (percent of patients): lebrikizumab 125 mg SC Q4W monotherapy (n = 28) or TCS cream alone BID (n = 27); for % change in pruritus VAS: patients with baseline pruritus VAS ≥3, lebrikizumab 125 mg SC Q4W monotherapy or TCS cream alone BID
# Description: Clinical Study II was a Phase II, randomized, open label study to evaluate the safety and efficacy of lebrikizumab monotherapy in adult patients (18-75 years of age) with persistent moderate to severe AD, who were inadequately controlled by TCS.
# The inclusion criteria included the following: age 18 to 75 years; AD diagnosed by the Hanifin/Rajka criteria and that had been present for at least 1 year at screening; moderate to severe AD as graded by the Rajka/Langeland criteria at screening; history of inadequate response to a 1 month (within the 3 months prior to the screening visit) treatment regimen of at least daily TCS and regular emollient for treatment of AD; EASI score 14 at screening and end of the run-in period (Visit 3), IGA score 3 (5-point scale) at screening and end of the run-in period (Visit 3); AD involvement of 10% body surface area (BSA) at screening; and Pruritus VAS score (measured as part of the SCORAD) of 3 at screening; adherence to the protocol-specified 2-week run-in period TCS regimen (at least 10 out of 14 days) at the time of entry into the treatment period (Day 1).
# Run-in Period. Following screening, eligible patients entered a 2-week run-in period (Days −14 to −1). After the run-in period, patients stopped use of their pre-study TCS (and other AD medications) and began a protocol-specified topical therapy regimen as outlined below. On the first day of the run-in period (Day −14) patients received TCS for use throughout the run-in period. Specifically, patients received triamcinolone acetonide 0.1% cream for use on the body and hydrocortisone 2.5% cream for use on the face and intertriginous areas. Patients were instructed to apply emollient to all xerotic skin surfaces at least once daily and to apply cream to active skin lesions twice per day and not to apply cream to unaffected areas.
# Treatment Period (Weeks 1-12). […] A total of approximately 50 patients were randomized (1:1) to one of the following two treatment groups (see FIG. 10): Group 1: 125 mg of lebrikizumab administered by subcutaneous (SC) injection every 4 weeks (Q4W) for a total of 3 doses; and Group 2: TCS cream alone.
# Efficacy Outcome Measures. The exploratory efficacy outcome measures of lebrikizumab monotherapy compared to TCS alone for this study were as follows, in order: (i) percent of patients with a 50% or 75% (EAST 50/75) reduction from baseline EASI at Week 12 (EASI-50 and EASI-75 were defined as a 50% and 75% reduction, respectively, in EASI score at Week 12 compared to baseline); (ii) percent and absolute change from baseline in EASI score at Week 12; (iii) percent of patients achieving an IGA score of 0 or 1 at Week 12; (iv) percent of patients with a ≥2 point reduction from baseline in IGA at Week 12; (v) absolute change from baseline in IGA at Week 12; (vi) percent of patients achieving an IGSA score of 0 or 1 at Week 12; (vii) percent of patients with a ≥2 point reduction from baseline in IGSA at Week 12; (viii) absolute change from baseline in IGSA at Week 12; (ix) percent and absolute change from baseline in SCORAD at Week 12; (x) percent of patients with a 50% or 75% reduction (SCORAD 50/75) from baseline in SCORAD score at Week 12; (xi) percent change from baseline in total percent body surface area (BSA) affected at Week 12; (xii) absolute- and percent-change from baseline in pruritus as measured by the Pruritus VAS (assessed as part of the SCORAD) at Week 12; (xiii) number of disease flares from baseline to Week 12; and (xiv) percent of patients who receive non-protocol specified TCS before Week 12.
# [2] = system: moderate-to-severe asthmatic patients not controlled on inhaled corticosteroids; details: all doses (37.5, 125, 250 mg Q4W), cited from earlier work
# [3] = Clinical Study I: serum lebrikizumab pharmacokinetics; type: in vivo, human; details: AD patients; for Mean Cmax, wk1 / Mean Cmin wk12 / Mean Cmin, wk4 / Mean Cmin, wk8: serum
# Method: Pharmacokinetic parameters were also assessed as follows. Serum samples for analysis of lebrikizumab pharmacokinetics were obtained at Day 1 (pre-dose) and at Weeks 1, 4 (pre-dose), 6, 8 (pre-dose), 12, 16, and 20 for all dosing regimens. Serum lebrikizumab concentrations were summarized by treatment and visit using descriptive statistics for the patients that received one of the lebrikizumab treatment regimens.
substance,measurement,setting,value
"lebrikizumab: monoclonal humanized anti-IL-13 IgG4 antibody; heavy chain SEQ ID NO: 11, light chain SEQ ID NO: 12; formulated at 125 mg/mL in prefilled syringe",% change in BSA,[1]; Baseline to Week 12,−43.2%
same,% change in EASI,[1]; Baseline to Week 12,−44.0%
same,% change in SCORAD,[1]; Baseline to Week 12,−26.6%
same,EASI-75 (percent of patients),[1]; Baseline to Week 12,39.3%
same,EASI-90 (percent of patients),[1]; Baseline to Week 12,14.3%
same,IGA 0/1 (percent of patients),[1]; Baseline to Week 12,7.1%
same,% change in pruritus VAS,[1]; Baseline to Week 12,−14.5%
same,% change in BSA,[1]; Day −14 to Week 12,−52.2%
same,% change in EASI,[1]; Day −14 to Week 12,−53.8%
same,% change in SCORAD,[1]; Day −14 to Week 12,−40.5%
same,EASI-75 (percent of patients),[1]; Day −14 to Week 12,42.9%
same,EASI-90 (percent of patients),[1]; Day −14 to Week 12,14.3%
same,IGA 0/1 (percent of patients),[1]; Day −14 to Week 12,7.1%
same,% change in pruritus VAS,[1]; Day −14 to Week 12,−39.6%
same,reduction in the rate of asthma exacerbations,[2]; biomarker-high (serum periostin-high) patients,60%
same,reduction in the rate of asthma exacerbations,[2]; biomarker-low (serum periostin-low) patients,5%
same,t½ (elimination half-life),[3]; 125 mg Q4W subcutaneous,20.9 days
same,t½ (elimination half-life),[3]; 125 mg SD subcutaneous,18.5 days
same,t½ (elimination half-life),[3]; 250 mg SD subcutaneous,22.2 days
same,half-life,[3]; across the dosing regimens,19 to 22 days
same,"Mean Cmax, wk1",[3]; 125 mg Q4W subcutaneous,16100 ng/mL
same,Mean Cmin wk12,[3]; 125 mg Q4W subcutaneous,14400 ng/mL
same,"Mean Cmin, wk4",[3]; 125 mg Q4W subcutaneous,9150 ng/mL
same,"Mean Cmin, wk8",[3]; 125 mg Q4W subcutaneous,13600 ng/mL
same,"Mean Cmax, wk1",[3]; 125 mg SD subcutaneous,17000 ng/mL
same,Mean Cmin wk12,[3]; 125 mg SD subcutaneous,2280 ng/mL
same,"Mean Cmin, wk4",[3]; 125 mg SD subcutaneous,10200 ng/mL
same,"Mean Cmin, wk8",[3]; 125 mg SD subcutaneous,4590 ng/mL
same,"Mean Cmax, wk1",[3]; 250 mg SD subcutaneous,35600 ng/mL
same,Mean Cmin wk12,[3]; 250 mg SD subcutaneous,3770 ng/mL
same,"Mean Cmin, wk4",[3]; 250 mg SD subcutaneous,21400 ng/mL
same,"Mean Cmin, wk8",[3]; 250 mg SD subcutaneous,9530 ng/mL
